Assay results taken from a compilation of properties of binary mixtures (doi:10.1021/acs.jpcb.8b11892).

Assay: xn = mol fraction of the nth substance listed
Settings: 101 kPa

Compound: O + CCOS(=O)(=O)[O-].CC[n+]1ccn(C)c1
- viscosity (293.15 K, x2 = 0): 0.97 mPa·s
- viscosity (298.15 K, x2 = 0): 0.87 mPa·s
- viscosity (303.15 K, x2 = 0): 0.78 mPa·s
- viscosity (313.15 K, x2 = 0): 0.64 mPa·s

Compound: CCOS(=O)(=O)[O-].CC[n+]1ccn(C)c1 + O
- viscosity (293.15 K, x1 = 0.001): 0.99 mPa·s
- viscosity (293.15 K, x1 = 0.003): 1.04 mPa·s
- viscosity (293.15 K, x1 = 0.004): 1.07 mPa·s
- viscosity (293.15 K, x1 = 0.006): 1.14 mPa·s
- viscosity (293.15 K, x1 = 0.008): 1.2 mPa·s
- viscosity (293.15 K, x1 = 0.013): 1.34 mPa·s
- viscosity (293.15 K, x1 = 0.019): 1.54 mPa·s
- viscosity (293.15 K, x1 = 0.032): 1.93 mPa·s
- viscosity (293.15 K, x1 = 0.047): 2.48 mPa·s
- viscosity (293.15 K, x1 = 0.071): 3.42 mPa·s
- viscosity (293.15 K, x1 = 0.103): 4.8 mPa·s
- viscosity (293.15 K, x1 = 0.229): 11 mPa·s
- viscosity (293.15 K, x1 = 0.303): 15.2 mPa·s
- viscosity (293.15 K, x1 = 0.473): 27.4 mPa·s
- viscosity (293.15 K, x1 = 0.588): 39.5 mPa·s
- viscosity (293.15 K, x1 = 0.642): 46.7 mPa·s
- viscosity (293.15 K, x1 = 1): 122 mPa·s
- electrical conductivity (298.15 K, x1 = 0.001): 0.29 S/m
- electrical conductivity (298.15 K, x1 = 0.004): 1.1 S/m
- viscosity (298.15 K, x1 = 0.004): 0.97 mPa·s
- electrical conductivity (298.15 K, x1 = 0.006): 1.5 S/m
- viscosity (298.15 K, x1 = 0.006): 1.02 mPa·s
- electrical conductivity (298.15 K, x1 = 0.008): 1.9 S/m
- viscosity (298.15 K, x1 = 0.008): 1.07 mPa·s
- electrical conductivity (298.15 K, x1 = 0.013): 2.5 S/m
- viscosity (298.15 K, x1 = 0.013): 1.19 mPa·s
- electrical conductivity (298.15 K, x1 = 0.019): 2.9 S/m
- viscosity (298.15 K, x1 = 0.019): 1.36 mPa·s
- electrical conductivity (298.15 K, x1 = 0.032): 3.7 S/m
- viscosity (298.15 K, x1 = 0.032): 1.7 mPa·s
- electrical conductivity (298.15 K, x1 = 0.071): 4.1 S/m
- viscosity (298.15 K, x1 = 0.071): 2.97 mPa·s
- electrical conductivity (298.15 K, x1 = 0.103): 3.7 S/m
- viscosity (298.15 K, x1 = 0.103): 4.14 mPa·s
- electrical conductivity (298.15 K, x1 = 0.151): 3.2 S/m
- viscosity (298.15 K, x1 = 0.151): 6.06 mPa·s
- electrical conductivity (298.15 K, x1 = 0.229): 2.5 S/m
- viscosity (298.15 K, x1 = 0.229): 9.33 mPa·s
- electrical conductivity (298.15 K, x1 = 0.303): 2 S/m
- viscosity (298.15 K, x1 = 0.303): 12.9 mPa·s
- electrical conductivity (298.15 K, x1 = 0.473): 1.2 S/m
- viscosity (298.15 K, x1 = 0.473): 22.9 mPa·s
- electrical conductivity (298.15 K, x1 = 0.588): 0.92 S/m
- viscosity (298.15 K, x1 = 0.588): 32.7 mPa·s
- electrical conductivity (298.15 K, x1 = 0.642): 0.81 S/m
- viscosity (298.15 K, x1 = 0.642): 38.3 mPa·s
- electrical conductivity (298.15 K, x1 = 1): 0.4 S/m
- viscosity (298.15 K, x1 = 1): 95.5 mPa·s
- viscosity (303.15 K, x1 = 0.001): 0.81 mPa·s
- viscosity (303.15 K, x1 = 0.003): 0.84 mPa·s
- viscosity (303.15 K, x1 = 0.004): 0.87 mPa·s
- viscosity (303.15 K, x1 = 0.006): 0.91 mPa·s
- viscosity (303.15 K, x1 = 0.008): 0.96 mPa·s
- viscosity (303.15 K, x1 = 0.013): 1.06 mPa·s
- viscosity (303.15 K, x1 = 0.019): 1.21 mPa·s
- viscosity (303.15 K, x1 = 0.032): 1.5 mPa·s
- viscosity (303.15 K, x1 = 0.071): 2.6 mPa·s
- viscosity (303.15 K, x1 = 0.103): 3.59 mPa·s
- viscosity (303.15 K, x1 = 0.151): 5.22 mPa·s
- viscosity (303.15 K, x1 = 0.229): 7.98 mPa·s
- viscosity (303.15 K, x1 = 0.303): 10.9 mPa·s
- viscosity (303.15 K, x1 = 0.473): 19.3 mPa·s
- viscosity (303.15 K, x1 = 0.588): 27.2 mPa·s
- viscosity (303.15 K, x1 = 0.642): 31.7 mPa·s
- viscosity (303.15 K, x1 = 1): 75.4 mPa·s
- electrical conductivity (313.15 K, x1 = 0.001): 0.39 S/m
- viscosity (313.15 K, x1 = 0.001): 0.66 mPa·s
- electrical conductivity (313.15 K, x1 = 0.004): 1.5 S/m
- viscosity (313.15 K, x1 = 0.004): 0.71 mPa·s
- electrical conductivity (313.15 K, x1 = 0.006): 2 S/m
- viscosity (313.15 K, x1 = 0.006): 0.74 mPa·s
- electrical conductivity (313.15 K, x1 = 0.032): 5.1 S/m
- viscosity (313.15 K, x1 = 0.032): 1.2 mPa·s
- electrical conductivity (313.15 K, x1 = 0.047): 5.7 S/m
- viscosity (313.15 K, x1 = 0.047): 1.51 mPa·s
- electrical conductivity (313.15 K, x1 = 0.071): 5.8 S/m
- viscosity (313.15 K, x1 = 0.071): 2.03 mPa·s
- electrical conductivity (313.15 K, x1 = 0.103): 5.4 S/m
- viscosity (313.15 K, x1 = 0.103): 2.77 mPa·s
- electrical conductivity (313.15 K, x1 = 0.229): 3.7 S/m
- viscosity (313.15 K, x1 = 0.229): 6 mPa·s
- electrical conductivity (313.15 K, x1 = 0.303): 3 S/m
- viscosity (313.15 K, x1 = 0.303): 8.15 mPa·s
- electrical conductivity (313.15 K, x1 = 0.473): 1.9 S/m
- viscosity (313.15 K, x1 = 0.473): 14.1 mPa·s
- electrical conductivity (313.15 K, x1 = 1): 0.73 S/m
- viscosity (313.15 K, x1 = 1): 49.4 mPa·s

Compound: CC[n+]1ccn(C)c1.O=S(=O)([O-])C(F)(F)F + O
- viscosity (293.15 K, x1 = 0.001): 1.01 mPa·s
- viscosity (293.15 K, x1 = 0.002): 1.03 mPa·s
- viscosity (293.15 K, x1 = 0.005): 1.11 mPa·s
- viscosity (293.15 K, x1 = 0.008): 1.16 mPa·s
- viscosity (293.15 K, x1 = 0.012): 1.26 mPa·s
- viscosity (293.15 K, x1 = 0.017): 1.38 mPa·s
- viscosity (293.15 K, x1 = 0.064): 2.48 mPa·s
- viscosity (293.15 K, x1 = 0.094): 3.21 mPa·s
- viscosity (293.15 K, x1 = 0.137): 4.24 mPa·s
- viscosity (293.15 K, x1 = 0.216): 6.17 mPa·s
- viscosity (293.15 K, x1 = 0.391): 10.9 mPa·s
- viscosity (293.15 K, x1 = 0.512): 15.5 mPa·s
- viscosity (293.15 K, x1 = 0.73): 27.3 mPa·s
- viscosity (293.15 K, x1 = 1): 52.4 mPa·s
- electrical conductivity (298.15 K, x1 = 0.001): 0.28 S/m
- viscosity (298.15 K, x1 = 0.001): 0.9 mPa·s
- electrical conductivity (298.15 K, x1 = 0.002): 0.66 S/m
- viscosity (298.15 K, x1 = 0.002): 0.92 mPa·s
- electrical conductivity (298.15 K, x1 = 0.004): 1 S/m
- viscosity (298.15 K, x1 = 0.004): 0.96 mPa·s
- electrical conductivity (298.15 K, x1 = 0.008): 1.7 S/m
- viscosity (298.15 K, x1 = 0.008): 1.03 mPa·s
- electrical conductivity (298.15 K, x1 = 0.029): 3.6 S/m
- viscosity (298.15 K, x1 = 0.029): 1.47 mPa·s
- electrical conductivity (298.15 K, x1 = 0.094): 4.8 S/m
- viscosity (298.15 K, x1 = 0.094): 2.81 mPa·s
- electrical conductivity (298.15 K, x1 = 0.216): 3.9 S/m
- viscosity (298.15 K, x1 = 0.216): 5.37 mPa·s
- electrical conductivity (298.15 K, x1 = 0.391): 2.8 S/m
- viscosity (298.15 K, x1 = 0.391): 9.43 mPa·s
- electrical conductivity (298.15 K, x1 = 0.463): 2.4 S/m
- viscosity (298.15 K, x1 = 0.463): 11.8 mPa·s
- electrical conductivity (298.15 K, x1 = 0.512): 2.1 S/m
- viscosity (298.15 K, x1 = 0.512): 13.4 mPa·s
- electrical conductivity (298.15 K, x1 = 0.73): 1.5 S/m
- viscosity (298.15 K, x1 = 0.73): 23.3 mPa·s
- electrical conductivity (298.15 K, x1 = 1): 0.91 S/m
- viscosity (298.15 K, x1 = 1): 43.8 mPa·s
- viscosity (303.15 K, x1 = 0.001): 0.81 mPa·s
- viscosity (303.15 K, x1 = 0.002): 0.83 mPa·s
- viscosity (303.15 K, x1 = 0.004): 0.86 mPa·s
- viscosity (303.15 K, x1 = 0.005): 0.88 mPa·s
- viscosity (303.15 K, x1 = 0.012): 0.99 mPa·s
- viscosity (303.15 K, x1 = 0.029): 1.31 mPa·s
- viscosity (303.15 K, x1 = 0.041): 1.57 mPa·s
- viscosity (303.15 K, x1 = 0.064): 1.92 mPa·s
- viscosity (303.15 K, x1 = 0.094): 2.47 mPa·s
- viscosity (303.15 K, x1 = 0.216): 4.71 mPa·s
- viscosity (303.15 K, x1 = 0.463): 10.3 mPa·s
- viscosity (303.15 K, x1 = 0.512): 11.7 mPa·s
- viscosity (303.15 K, x1 = 0.73): 20 mPa·s
- viscosity (303.15 K, x1 = 1): 36.7 mPa·s
- electrical conductivity (313.15 K, x1 = 0.001): 0.37 S/m
- viscosity (313.15 K, x1 = 0.001): 0.67 mPa·s
- electrical conductivity (313.15 K, x1 = 0.002): 0.93 S/m
- viscosity (313.15 K, x1 = 0.002): 0.69 mPa·s
- electrical conductivity (313.15 K, x1 = 0.005): 1.8 S/m
- viscosity (313.15 K, x1 = 0.005): 0.72 mPa·s
- electrical conductivity (313.15 K, x1 = 0.008): 2.3 S/m
- viscosity (313.15 K, x1 = 0.008): 0.75 mPa·s
- electrical conductivity (313.15 K, x1 = 0.012): 3.1 S/m
- viscosity (313.15 K, x1 = 0.012): 0.82 mPa·s
- electrical conductivity (313.15 K, x1 = 0.041): 5.6 S/m
- viscosity (313.15 K, x1 = 0.041): 1.26 mPa·s
- electrical conductivity (313.15 K, x1 = 0.064): 6.4 S/m
- viscosity (313.15 K, x1 = 0.064): 1.52 mPa·s
- electrical conductivity (313.15 K, x1 = 0.094): 6.6 S/m
- viscosity (313.15 K, x1 = 0.094): 1.96 mPa·s
- electrical conductivity (313.15 K, x1 = 0.216): 5.7 S/m
- viscosity (313.15 K, x1 = 0.216): 3.69 mPa·s
- electrical conductivity (313.15 K, x1 = 0.391): 4.1 S/m
- viscosity (313.15 K, x1 = 0.391): 6.41 mPa·s
- electrical conductivity (313.15 K, x1 = 0.463): 3.4 S/m
- viscosity (313.15 K, x1 = 0.463): 7.95 mPa·s
- electrical conductivity (313.15 K, x1 = 0.512): 3.1 S/m
- viscosity (313.15 K, x1 = 0.512): 9.02 mPa·s
- electrical conductivity (313.15 K, x1 = 0.73): 2.2 S/m
- viscosity (313.15 K, x1 = 0.73): 15 mPa·s
- electrical conductivity (313.15 K, x1 = 1): 1.4 S/m
- viscosity (313.15 K, x1 = 1): 26.6 mPa·s
